Assay results from US8088805B2, “Inhibitors of histone deacetylase” (MethylGene Inc., priority 2004, dated 2012).

Columns and labels:
[1] = test system: Histone H4 acetylation in T24 human bladder cancer cells; test: Histone H4 acetylation in whole cells by immunoblots; format: cell-based; details: ratio of EC50 of compound to EC50 of control MS-275, 16 h
Experimental: T24 human bladder cancer cells growing in culture were incubated with HDAC inhibitors for 16 h. Histones were extracted from the cells after the culture period as described by M. Yoshida et al. (J. Biol. Chem. 265(28): 17174-17179 (1990)). […] of total histone protein was loaded onto SDS/PAGE and transferred to nitrocellulose membranes. Membranes were probed with polyclonal antibodies specific for acetylated histone H-4 (Upstate Biotech Inc.), followed by horse radish peroxidase conjugated secondary antibodies (Sigma). Enhanced Chemiluminescence (ECL) (Amersham) detection was performed using Kodak films (Eastman Kodak). Acetylated H-4 signal was quantified by densitometry. Data are presented as the ratio of the concentration effective for […] the acetylated H-4 signal by 50% (EC50) using the indicated compound of the invention to a control compound, MS-275. If the indicated ratio is 1, then the compound of the invention is as effective as the MS-275 control compound. […] Further information regarding the MS-275 compound can be found in Suzuki et al., J. Med. Chem. 1999, pp. 3001-3003.

[2] = target: T1, cloned recombinant human HDAC-1 enzyme (Homo sapiens, UniProt Q13547); test: HDAC-1 enzymatic inhibition, Assay 1 ([3H]-acetylated histone substrate); format: biochemical; details: Assay 1: [3H]-labeled acetylated histone substrate, recombinant hHDAC-1
T1 construct: made in house; host or cells: Baculovirus insect cell expression system
T1 sequence (Q13547 whole entry): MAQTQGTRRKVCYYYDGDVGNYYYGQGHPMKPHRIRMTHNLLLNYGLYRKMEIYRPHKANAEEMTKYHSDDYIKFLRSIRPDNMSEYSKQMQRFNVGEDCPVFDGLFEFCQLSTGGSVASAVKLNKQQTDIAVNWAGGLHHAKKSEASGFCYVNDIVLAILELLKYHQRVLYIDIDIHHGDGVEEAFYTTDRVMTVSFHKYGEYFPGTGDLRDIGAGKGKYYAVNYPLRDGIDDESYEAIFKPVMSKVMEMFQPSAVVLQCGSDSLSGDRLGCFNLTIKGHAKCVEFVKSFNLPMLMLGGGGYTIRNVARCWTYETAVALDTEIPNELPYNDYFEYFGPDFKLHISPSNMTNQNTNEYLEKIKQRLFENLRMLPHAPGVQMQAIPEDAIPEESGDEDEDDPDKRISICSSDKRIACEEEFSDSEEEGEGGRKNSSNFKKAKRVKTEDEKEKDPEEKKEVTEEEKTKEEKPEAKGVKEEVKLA
Experimental: Assay 1. HDAC inhibitors were screened against a cloned recombinant human HDAC-1 enzyme expressed and purified from a Baculovirus insect cell expression system. For deacetylase assays, 20,000 cpm of the [^3H]-metabolically labeled acetylated histone substrate (M. Yoshida et al., J. Biol. Chem. 265(28): 17174-17179 (1990)) was incubated with 30 μg of the cloned recombinant hHDAC-1 for 10 minutes at 37° C. The reaction was stopped by adding acetic acid (0.04 M, final concentration) and HCl (250 mM, final concentration). The mixture was extracted with ethyl acetate and the released [^3H]-acetic acid was quantified by scintillation counting. For inhibition studies, the enzyme was preincubated with compounds at 4° C. for 30 minutes prior to initiation of the enzymatic assay. IC50 values for HDAC enzyme inhibitors were determined by performing dose response curves with individual compounds and determining the concentration of inhibitor producing fifty percent of the maximal inhibition.
Assay 1 was used to measure HDAC activity of compounds 10c, 13e, 16d, 26b, 44, 47, 61a, 61b, 63, 134, 138, and 308. Assay 2 was used to measure HDAC activity of compounds 361, 366, 367, 368, 369, 370, 371, 372, 373, 374, 375, 376, 377, and 378. In Table 14, “a” indicates activity of ≦0.1 μM, “b” indicates activity of ≦1 μM, “c” indicates activity of ≦5 μM, and “d” indicates activity of >5 μm. For the H4-Ac T24 EC vs. MS-275 assay in Table 14, “u” indicates less than 1, “v” indicates 1, and “w” indicates greater than 1. For the H3 Ac t24 assay in Table 14, “x” indicates activity of ≦1 μM, “y” indicates activity of ≦10 μM, and “z” indicates activity of ≦20 μM.

[3] = test system: HCT116 cells; test: MTT assay; format: cell-based; details: Homo sapiens, HCT-116, 72 hours
Experimental: HCT116 cells (2000/well) were plated into 96-well tissue culture plates one day before compound treatment. Compounds at various concentrations were added to the cells. The cells were incubated for 72 hours at 37° C. in 5% CO2 incubator. MTT (3-[4,5-dimethylthiazol-2-yl]-2,5diphenyl tetrazolium bromide, Sigma) was added at a final concentration of 0.5 mg/ml and incubated with the cells for 4 hours before one volume of solubilization buffer (50% N,N-dimethylformamide, 20% SDS, pH 4.7) was added onto the cultured cells. After overnight incubation, solubilized dye was quantified by colorimetric reading at 570 nM using a reference at 630 nM using an MR700 plate reader (Dynatech Laboratories Inc.). OD values were converted to cell numbers according to a standard growth curve of the relevant cell line. The concentration which reduces cell numbers to 50% of that of solvent treated cells is determined as MTT IC50. In Table 14, “a” indicates activity of ≦0.1 μM, “b” indicates activity of ≦1 μM, and “c” indicates activity of ≦5 μM.

[4] = test system: A549 lung cancer cells; test: Human tumor xenograft in vivo, A549; details: mice
Experimental: (§1) Eight to ten week old female BCD1 mice (Taconic Labs, Great Barrington, N.Y.) were injected subcutaneously in the flank area with 2×10^6 preconditioned HCT116 human colorectal carcinoma cells, SW48 colon cancer cells, and A549 lung cancer cells. Preconditioning of these cells was done by a minimum of three consecutive tumor transplantations in the same strain of nude mice. Subsequently, tumor fragments of approximately 30 mgs were excised and implanted subcutaneously in mice, in the left flank area, under Forene anesthesia (Abbott Labs, Geneva, Switzerland). When the tumors reached a mean volume of 100 mm^3, the mice were treated intraperitoneally by daily injection, with a solution of the histone deacetylase inhibitor in DMSO, at a starting dose of 10 mg/kg. The optimal dose of the HDAC inhibitor was established by dose response experiments according to standard protocols. Tumor volume was calculated every second day post infusion according to standard methods (e.g., Meyer et al., Int. J. Cancer 43: 851-856 (1989)).

[5] = test system: SW48 colon cancer cells; test: Human tumor xenograft in vivo, SW48; details: Mus musculus, 40 mg/kg ip, mice, read-out: % Inhibition (relative to vehicle control) SW48
Experimental: as §1

[6] = test system: HCT116 human colorectal carcinoma cells; test: Human tumor xenograft in vivo, HCT116; details: Mus musculus, HCT-116; 30 mg/kg ip, mice; read-out: % Inhibition (relative to vehicle control) HCT116
Experimental: as §1

| IC50 [2] [nM] | IC50 [3] [nM] | Structure (SMILES) | H4-Ac T24 EC vs. MS-275 [1] | % Inhibition (relative to vehicle control) A549 ([4]; 40 mg/kg ip) [%] | inhibition in vivo at 40 mg/kg [5] [%] | inhibition in vivo at 30 mg/kg [6] [%] | % Inhibition (relative to vehicle control) A549 ([4]; 30 mg/kg ip) [%] |
| --- | --- | --- | --- | --- | --- | --- | --- |
| 1000 to 5000 | ≤ 100 | Nc1ccccc1NC(=O)c1ccc(CNc2nccc(-c3ccccn3)n2)cc1 [26b, N-(2-Amino-phenyl)-4-[(4-pyridin-2-yl-pyrimidin-2-ylamino)-methyl]-benzamide] | v (“v” indicates 1) | 74.4 | 75.1 | – | – |
| 1000 to 5000 | ≤ 100 | CN(C)CCOc1ccc2nc(NCc3ccc(C(=O)Nc4ccccc4N)cc3)sc2c1 [compound 138, N-(2-Amino-phenyl)-4-{[6-(2-dimethylamino-ethoxy)-benzothiazol-2-ylamino]-methyl}-benzamide] | u (“u” indicates less than 1) | – | – | 79.8 | 83.7 |
